# Reference: PMC6112376, “Comprehensive Analyses and Prioritization of Tox21 10K Chemicals Affecting Mitochondrial Function by in-Depth Mechanistic Studies” (Environmental Health Perspectives, 2018)
# Like-named read-outs stand apart in the source and are kept apart here.
# Tests used:
# [1] = test system: Caenorhabditis elegans strain PE255; test: In vivo C. elegans ATP status assay; settings: for minimal effective concentration: Caenorhabditis elegans, read-out: LEC LUM: lowest effect concentration for luminescence, a measure of nematode ATP content
# [2] = test system: Caenorhabditis elegans (Bristol N2); settings: Bristol N2 (wild type), Caenorhabditis elegans, in vivo
# [3] = test system: hNSC; test: MMP assay in human neural stem cells (hNSC); type: cell-based; settings: Homo sapiens, Neural stem cell, 1 h, read-out: hNSC IC50 (MMP)
# [4] = test system: HepG2 cells; test: Intracellular ATP content (cell viability) assay; type: cell-based, human; settings: Homo sapiens, HepG2, 40 h
# [5] = test system: HepG2 cells; test: ROS-Glo hydrogen peroxide (ROS) assay; type: cell-based, human; settings: Homo sapiens, HepG2, 2 h, read-out: ROS (HepG2) EC50
# [6] = test system: HeLa cells expressing YFP-Parkin; test: Parkin translocation assay; type: cell-based, human
# [7] = test system: rat primary hepatocytes
# [8] = test system: HepG2 cells; settings: cited from earlier work; for IC50: read-out: MMP assays IC50 (µM) qHTS-HepG2
# [9] = test system: Caenorhabditis elegans strain PE255; settings: PE255 [sur-5::luc+::gfp; rol-6(su1006)], Caenorhabditis elegans, in vivo
# [10] = test system: p53 (p53-bla HCT-116 cells); test: p53 β-lactamase reporter gene assay; type: cell-based, human; settings: 16 h incubation; mean±SD of three experiments
# [11] = test system: HepG2 cells; test: cells; settings: Homo sapiens; for Emax: HepG2, read-out: MMP assays efficacy (%) HepG2
# [12] = test system: rat primary hepatocytes; test: MMP assay in rat primary hepatocytes; settings: Rattus norvegicus, Hepatocyte
# [13] = test system: isolated rat liver mitochondria; test: Oxygen consumption, Clark-type oxygen electrode; type: biochemical
# [14] = test system: Nrf2/ARE (ARE-bla HepG2 cells); test: ARE β-lactamase reporter gene assay; type: cell-based, human; settings: 16 h incubation, mean±SD of three experiments
# [15] = test system: Caenorhabditis elegans (Bristol N2); test: C. elegans larval development and growth assay; settings: for minimal effective concentration: Caenorhabditis elegans, read-out: LEC EXT: lowest effect concentration for extinction, a measure of nematode size
# [16] = read-out: ATP (HepG2, galactose) IC50
# [17] = read-out: ATP (HepG2, glucose) IC50
# [18] = HepG2, 1 h, read-out: HepG2 IC50 Galactose (MMP)
# [19] = HepG2, 1 h, read-out: HepG2 IC50 Glucose (MMP)
# [20] = HepG2, read-out: MMP assays IC50 (µM) HepG2
# [21] = 1 h, read-out: Rat hepatocytes IC50 (MMP)
# [22] = read-out: MMP assays IC50 (µM) Rat Hepatocytes
structure (smiles),measurement,setting,value
O=C1c2ccccc2C(=O)C1C(=O)C(c1ccccc1)c1ccc(Cl)cc1 (centres unmarked) [Chlorophacinone],LUM: mean difference in luminescence (ATP content) relative to plate controls,[1]; 0.5 µM,0.2858
same,LUM: mean difference in luminescence (ATP content) relative to plate controls,[1]; 1 µM,0.2624
same,LUM: mean difference in luminescence (ATP content) relative to plate controls,[1]; 5 µM,0.9157
same,LUM: mean difference in luminescence (ATP content) relative to plate controls,[1]; 10 µM,0.9688
same,LUM: mean difference in luminescence (ATP content) relative to plate controls,[1]; 25 µM,0.9113
same,LUM: mean difference in luminescence (ATP content) relative to plate controls,[1]; 50 µM,1.406
same,LUM: mean difference in luminescence (ATP content) relative to plate controls,[1]; 75 µM,1.423
same,LUM: mean difference in luminescence (ATP content) relative to plate controls,[1]; 100 µM,1.347
same,minimal effective concentration,[1],5 µM
same,"LEC (lowest effect concentration), larval growth assay",[2],< 10 µM
same,IC50,[3],12.6 µM
same,IC50,[4]; [16],41.4 µM
same,IC50,[4]; [17],48.2 µM
same,EC50,[5],41.7 µM
same,Parkin recruitment,[6],Inactive
same,MMP assays efficacy (%) Rat Hepatocytes,[7],-86±11%
same,Rat hepatocytes (efficacy) (MMP),[7],10.5±4.28 ( −97.8±13.3 ) %
same,MMP assays efficacy (%) qHTS-HepG2,[8],-103±9%
same,IC50,[8],0.64 ± 0.25 µM
same,"LEC (lowest effect concentration), ATP assay",[9],< 10 µM
same,p53 (HCT-116) EC50,[10],Inactive
same,IC50,[11]; [18],46.3 µM
same,IC50,[11]; [19],27.1 µM
same,IC50,[11]; [20],3.55 µM
same,Emax,[11],109%
same,IC50,[12]; [21],10.5 µM
same,IC50,[12]; [22],4.65 ± 4.78 µM
same,Potential Mechanism,[13],"Uncoupler at low concentrations (0.8-4 µM), and Uncoupler + inhibitor at high concentrations (20 -100 µM)"
same,"I-ADP, % of control (O2 consumption rate)",[13]; 0.16 µM,104 (45.2) % of control
same,"I-sub, % of control (O2 consumption rate)",[13]; 0.16 µM,112 (14.7) % of control
same,"II-ADP, % of control (O2 consumption rate)",[13]; 0.16 µM,97 (66.0) % of control
same,"II-sub, % of control (O2 consumption rate)",[13]; 0.16 µM,97 (20.2) % of control
same,"I-ADP, % of control (O2 consumption rate)",[13]; 0.8 µM,95 (41.2) % of control
same,"I-sub, % of control (O2 consumption rate)",[13]; 0.8 µM,111 (14.5) % of control
same,"II-ADP, % of control (O2 consumption rate)",[13]; 0.8 µM,107 (72.3) % of control
same,"II-sub, % of control (O2 consumption rate)",[13]; 0.8 µM,125 (26.1) % of control
same,"I-ADP, % of control (O2 consumption rate)",[13]; 4 µM,97 (42.2) % of control
same,"I-sub, % of control (O2 consumption rate)",[13]; 4 µM,182 (23.9) % of control
same,"II-ADP, % of control (O2 consumption rate)",[13]; 4 µM,87 (58.8) % of control
same,"II-sub, % of control (O2 consumption rate)",[13]; 4 µM,203 (42.5) % of control
same,"I-ADP, % of control (O2 consumption rate)",[13]; 20 µM,72 (31.3) % of control
same,"I-sub, % of control (O2 consumption rate)",[13]; 20 µM,285 (37.3) % of control
same,"II-ADP, % of control (O2 consumption rate)",[13]; 20 µM,39 (26.3) % of control
same,"II-sub, % of control (O2 consumption rate)",[13]; 20 µM,150 (31.3) % of control
same,"I-ADP, % of control (O2 consumption rate)",[13]; 100 µM,21 (11.4) % of control
same,"I-sub, % of control (O2 consumption rate)",[13]; 100 µM,110 (14.8) % of control
same,"II-ADP, % of control (O2 consumption rate)",[13]; 100 µM,15 (9.9) % of control
same,"II-sub, % of control (O2 consumption rate)",[13]; 100 µM,61 (13.1) % of control
same,ARE (HepG2) EC50,[14],Inactive
same,EXT: mean difference in nematode size relative to plate controls,[15]; 0.5 µM,0.2337
same,EXT: mean difference in nematode size relative to plate controls,[15]; 1 µM,0.388
same,EXT: mean difference in nematode size relative to plate controls,[15]; 5 µM,0.7901
same,EXT: mean difference in nematode size relative to plate controls,[15]; 10 µM,1.11
same,EXT: mean difference in nematode size relative to plate controls,[15]; 25 µM,1.457
same,EXT: mean difference in nematode size relative to plate controls,[15]; 50 µM,1.812
same,EXT: mean difference in nematode size relative to plate controls,[15]; 75 µM,1.667
same,EXT: mean difference in nematode size relative to plate controls,[15]; 100 µM,1.868
same,minimal effective concentration,[15],1 µM
CC(C)(C)c1cc([N+](=O)[O-])cc([N+](=O)[O-])c1O [Dinoterb],minimal effective concentration,[1],1 µM
same,"LEC (lowest effect concentration), larval growth assay",[2],< 10 µM
same,IC50,[3],10.1 µM
same,IC50,[4]; [16],22.3 µM
same,IC50,[4]; [17],19.7 µM
same,EC50,[5],13.2 µM
same,Parkin recruitment,[6],Active
same,Parkin translocation into mitochondria (in words),[6]; 3 h,patterns similar to antimycin A and FCCP
same,MMP assays efficacy (%) Rat Hepatocytes,[7],-88±9%
same,Rat hepatocytes (efficacy) (MMP),[7],2.39±1.02 ( −105±23.8 ) %
same,MMP assays efficacy (%) qHTS-HepG2,[8],-95±8%
same,IC50,[8],0.48 µM
same,"LEC (lowest effect concentration), ATP assay",[9],< 10 µM
same,inhibitory effect at (concentration) on ATP content in the C. elegans assay,[9],1.0 µM
same,IC50,[11]; [18],7.19 µM
same,IC50,[11]; [19],7.23 µM
same,IC50,[11]; [20],2.24 µM
same,Emax,[11],101%
same,IC50,[12]; [21],2.39 µM
same,IC50,[12]; [22],0.76 ± 0.45 µM
same,Potential Mechanism,[13],"Uncoupler at low concentrations (0.032-0.8 µM), and Uncoupler + inhibitor at high concentrations (4-100 µM)"
same,effect on mitochondrial respiration (in words),[13],effects similar to those of FCCP
same,uncoupler effect at (concentration) in the oxygen consumption assay,[13],0.032 µM
same,"I-ADP, % of control (O2 consumption rate)",[13]; 0.0064 µM,103 (38.3) % of control
same,"I-sub, % of control (O2 consumption rate)",[13]; 0.0064 µM,92 (9.9) % of control
same,"II-ADP, % of control (O2 consumption rate)",[13]; 0.0064 µM,105 (66) % of control
same,"II-sub, % of control (O2 consumption rate)",[13]; 0.0064 µM,99 (18.4) % of control
same,"I-ADP, % of control (O2 consumption rate)",[13]; 0.032 µM,95 (41.5) % of control
same,"I-sub, % of control (O2 consumption rate)",[13]; 0.032 µM,135 (17.7) % of control
same,"II-ADP, % of control (O2 consumption rate)",[13]; 0.032 µM,97 (65.4) % of control
same,"I-ADP, % of control (O2 consumption rate)",[13]; 0.16 µM,113 (49.2) % of control
same,"I-sub, % of control (O2 consumption rate)",[13]; 0.16 µM,206 (27.0) % of control
same,"II-ADP, % of control (O2 consumption rate)",[13]; 0.16 µM,106 (72.0) % of control
same,"II-sub, % of control (O2 consumption rate)",[13]; 0.16 µM,264 (55.1) % of control
same,"I-ADP, % of control (O2 consumption rate)",[13]; 0.8 µM,148 (64.4) % of control
same,"I-sub, % of control (O2 consumption rate)",[13]; 0.8 µM,486 (63.7) % of control
same,"II-ADP, % of control (O2 consumption rate)",[13]; 0.8 µM,102 (68.8) % of control
same,"II-sub, % of control (O2 consumption rate)",[13]; 0.8 µM,367 (76.8) % of control
same,"I-ADP, % of control (O2 consumption rate)",[13]; 4 µM,100 (43.7) % of control
same,"I-sub, % of control (O2 consumption rate)",[13]; 4 µM,320 (41.9) % of control
same,"II-ADP, % of control (O2 consumption rate)",[13]; 4 µM,58 (39.5) % of control
same,"II-sub, % of control (O2 consumption rate)",[13]; 4 µM,211 (44.0) % of control
same,"I-ADP, % of control (O2 consumption rate)",[13]; 20 µM,69 (30.1) % of control
same,"I-sub, % of control (O2 consumption rate)",[13]; 20 µM,239 (31.3) % of control
same,"II-ADP, % of control (O2 consumption rate)",[13]; 20 µM,11 (7.7) % of control
same,"II-sub, % of control (O2 consumption rate)",[13]; 20 µM,36 (7.6) % of control
same,"I-ADP, % of control (O2 consumption rate)",[13]; 100 µM,10 (4.9) % of control
same,"I-sub, % of control (O2 consumption rate)",[13]; 100 µM,23 (5.0) % of control
same,"II-ADP, % of control (O2 consumption rate)",[13]; 100 µM,5 (3.1) % of control
same,"II-sub, % of control (O2 consumption rate)",[13]; 100 µM,13 (4.4) % of control
same,EC50,"[14]; Homo sapiens, HepG2, read-out: ARE (HepG2) EC50",0.52 ± 0.15 µM
same,minimal effective concentration,[15],5 µM
